Experiments:
[1] = xenon gas; cited from earlier work
kidney = test: Ischaemic-reperfusion renal injury with xenon preconditioning; format: in vivo, C57BL/6J mice
Experimental: (§1) Studies were performed on 8- to 12-wk-old C57BL/6J mice (Jackson Labs, Bar Harbor, Me.) that were fed a standard laboratory diet. All procedures were approved by the Home Office.
The groups of mice were treated as follows: • Naïve=no anaesthesia and no surgery of any kind was carried out on these mice; • Sham=anaesthesia and surgery was carried out on these mice but there was no clamping of the renal pedicle; • Control (or P20)=anaesthesia and surgery together with clamping of the renal pedicle was carried out on these mice but there was but no xenon preconditioning; • XPD group (or XePC24)=mice were exposed to 75% xenon for two hours (XPD=preconditioned with xenon). The xenon gas was administered to the mice by inhalation. Twenty-four hours after this preconditioning the mice then underwent anaesthesia and surgery together with clamping of the renal pedicle; and • Xe=mice were exposed to 75% xenon for two hours but no surgery together with clamping of the renal pedicle was carried out.
Renal injury, as described below, was carried out 24 hours after the mice were exposed to xenon. […]
Kidneys were removed from mice immediately after they were killed, cut in half, fixed in neutral-buffered formalin, and embedded in paraffin. Sections (5 μm thick) of formalin-fixed, paraffin-embedded tissue were mounted on glass slides and stained with haematoxylin-eosin for general histology and quantitative analysis. All tissues were evaluated without investigator knowledge of the group from which it originated.
For quantification of morphologic data, more than 10 low-magnification fields (×200) including both cortex and outer medulla were randomly selected. […] The total score for each kidney was calculated by addition of all 10 scores (maximum score 30). The histology score was assessed in a blinded manner in each group. […] mice were assessed for the control and XPD groups and four mice were assessed for each of the naïve and sham groups.
Mean±SEM are presented. The significant difference in mean values was evaluated by either a t test or by Dunnett paired t test for multiple comparisons. […]

main organs = settings: xenon exposure (Natale et al 1998); cited from earlier work
rabbit heart = settings: xenon during early reperfusion, rabbit heart (Preckel et al 2000); cited from earlier work
PHD2 = PHD2 expression in adult mice brains (western blot); format: in vivo, C57BL/6J mice; settings: 75% xenon and 25% oxygen 2 h, harvested 0-48 h after
Experimental: as §1
The mice were exposed to 75% xenon and 25% oxygen for two hours. The xenon gas was administered to the mice by inhalation. The brains of said adult mice were then harvested as described below between 0-48 hours after exposure to the xenon gas.
The tissues were homogenised and western blots of adult mice brain samples were carried out as described in Example 1.
The primary antibody was monoclonal mouse anti-PHD2 antibody.

[2] = XePC24 group compared to P20 group (no preconditioning)

[Xe] [xenon]
specific gravity or density [1]: 5.887 g/L | morphologic injury in the kidney (kidney; 75% xenon 2 h, 24 h before 20 min ischaemia and 24 h reperfusion, histology score): decreased | amount of creatinine in blood plasma (kidney; [2]): significantly decreases | amount of urea nitrogen in blood plasma (kidney; [2]): significantly decreases | toxic effects on main organs (main organs): does not induce significant toxic effects | infarct size after regional ischaemia (rabbit heart): reduces infarct size | expression of PHD2 (PHD2): time-dependent reduction
